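Method: 48-hour compound exposure of cells in 96-well plates, five concentrations, linear interpolation of endpoints. The concentration for 50% growth inhibition is given as GI50.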 The source made the active and inactive calls. Rule as the data show it: active = GI50 up to about 1.1 µM and inactive = higher.
How the values were obtained:
Test in all cases: inhibition of tumour cell growth, NCI panel, 48 h
MDA-MB-435 = test system: MDA-MB-435
TK-10 = test system: TK-10
OVCAR-3 = test system: OVCAR-3
SK-MEL-2 = test system: SK-MEL-2
HT-29 = test system: HT-29
OVCAR-4 = test system: OVCAR-4
SNB-19 = test system: SNB-19
SR = test system: SR
ACHN = test system: ACHN
NCI-H460 = test system: NCI-H460
Hs-578T = test system: Hs-578T
UACC-62 = test system: UACC-62
CCRF-CEM = test system: CCRF-CEM
LOX IMVI = test system: LOX IMVI
UACC-257 = test system: UACC-257
T47D = test system: T47D
SNB-75 = test system: SNB-75
M14 = test system: M14
HCT-116 = test system: HCT-116
SF-268 = test system: SF-268
SW-620 = test system: SW-620
NCI-H226 = test system: NCI-H226
IGROV-1 = test system: IGROV-1
786-0 = test system: 786-0
SK-MEL-28 = test system: SK-MEL-28
SK-OV-3 = test system: SK-OV-3
UO-31 = test system: UO-31
KM12 = test system: KM12
MCF7 = test system: MCF7
A498 = test system: A498
SF-295 = test system: SF-295
NCI-H522 = test system: NCI-H522
BT-549 = test system: BT-549
K562 = test system: K562
MDA-N = test system: MDA-N
NCI-H23 = test system: NCI-H23
PC-3 = test system: PC-3
CAKI-1 = test system: CAKI-1
MOLT-4 = test system: MOLT-4
NCI/ADR-RES = test system: NCI/ADR-RES
HL-60 = test system: HL-60
A549 = test system: A549
RPMI-8226 = test system: RPMI-8226
COLO 205 = test system: COLO 205
OVCAR-8 = test system: OVCAR-8
SK-MEL-5 = test system: SK-MEL-5
HOP-62 = test system: HOP-62
HCT-15 = test system: HCT-15
SN12C = test system: SN12C
EKVX = test system: EKVX
MDA-MB-231 = test system: MDA-MB-231
DU-145 = test system: DU-145
U-251 = test system: U-251
SF-539 = test system: SF-539
OVCAR-5 = test system: OVCAR-5
HOP-92 = test system: HOP-92

## CN(C)C1C(CO)OC(n2cnc3c(N)ncnc32)C1O (centres undefined)
MDA-MB-435
  GI50: > 100 µM (inactive)
TK-10
  GI50: > 100 µM (inactive)
OVCAR-3
  GI50: > 100 µM (inactive)
SK-MEL-2
  GI50: > 100 µM (inactive)
HT-29
  GI50: > 100 µM (inactive)
OVCAR-4
  GI50: > 100 µM (inactive)
SNB-19
  GI50: > 100 µM (inactive)
SR
  GI50: > 100 µM (inactive)
ACHN
  GI50: > 100 µM (inactive)
NCI-H460
  GI50: > 100 µM (inactive)
Hs-578T
  GI50: > 100 µM (inactive)
UACC-62
  GI50: > 100 µM (inactive)
CCRF-CEM
  GI50: > 100 µM (inactive)
LOX IMVI
  GI50: > 100 µM (inactive)
UACC-257
  GI50: > 100 µM (inactive)
T47D
  GI50: > 100 µM (inactive)
SNB-75
  GI50: > 100 µM (inactive)
M14
  GI50: > 100 µM (inactive)
HCT-116
  GI50: > 100 µM (inactive)
SF-268
  GI50: > 100 µM (inactive)
SW-620
  GI50: > 100 µM (inactive)
NCI-H226
  GI50: > 100 µM (inactive)
IGROV-1
  GI50: > 100 µM (inactive)
786-0
  GI50: > 100 µM (inactive)
SK-MEL-28
  GI50: > 100 µM (inactive)
SK-OV-3
  GI50: > 100 µM (inactive)
UO-31
  GI50: > 100 µM (inactive)
KM12
  GI50: > 100 µM (inactive)
MCF7
  GI50: > 100 µM (inactive)
A498
  GI50: > 100 µM (inactive)
SF-295
  GI50: > 100 µM (inactive)
NCI-H522
  GI50: > 100 µM (inactive)
BT-549
  GI50: > 100 µM (inactive)
K562
  GI50: > 100 µM (inactive)
MDA-N
  GI50: > 100 µM (inactive)
NCI-H23
  GI50: > 100 µM (inactive)
PC-3
  GI50: > 100 µM (inactive)
CAKI-1
  GI50: > 100 µM (inactive)
MOLT-4
  GI50: > 100 µM (inactive)
NCI/ADR-RES
  GI50: > 100 µM (inactive)
HL-60
  GI50: > 100 µM (inactive)
A549
  GI50: > 100 µM (inactive)
RPMI-8226
  GI50: > 100 µM (inactive)
COLO 205
  GI50: > 100 µM (inactive)
OVCAR-8
  GI50: > 100 µM (inactive)
SK-MEL-5
  GI50: > 100 µM (inactive)
HOP-62
  GI50: > 100 µM (inactive)
HCT-15
  GI50: > 100 µM
SN12C
  GI50: > 100 µM (inactive)
EKVX
  GI50: > 100 µM (inactive)
MDA-MB-231
  GI50: > 100 µM (inactive)
DU-145
  GI50: > 100 µM (inactive)
U-251
  GI50: > 100 µM (inactive)
SF-539
  GI50: > 100 µM (inactive)
OVCAR-5
  GI50: > 100 µM (inactive)

## CCOC(=O)/C(=N\Nc1ccc(-n2c(C)nc3ccccc3c2=O)cc1)C(C)=O
MDA-MB-435
  GI50: 17.5 µM (inactive)
TK-10
  GI50: 20.9 µM (inactive)
OVCAR-3
  GI50: 21.7 µM (inactive)
SK-MEL-2
  GI50: 54.5 µM (inactive)
HT-29
  GI50: 53.6 µM (inactive)
SNB-19
  GI50: > 100 µM (inactive)
SR
  GI50: 33.3 µM (inactive)
ACHN
  GI50: 32.4 µM (inactive)
NCI-H460
  GI50: 92.9 µM (inactive)
HOP-92
  GI50: 11.9 µM (inactive)
Hs-578T
  GI50: 20.7 µM (inactive)
UACC-62
  GI50: 29.8 µM (inactive)
CCRF-CEM
  GI50: 40.3 µM (inactive)
LOX IMVI
  GI50: 32.1 µM (inactive)
UACC-257
  GI50: 26.4 µM (inactive)
T47D
  GI50: 21 µM (inactive)
SNB-75
  GI50: 17.2 µM (inactive)
M14
  GI50: 24.2 µM (inactive)
HCT-116
  GI50: 36 µM (inactive)
SF-268
  GI50: 25.8 µM (inactive)
SW-620
  GI50: 61.5 µM (inactive)
NCI-H226
  GI50: 18.7 µM (inactive)
IGROV-1
  GI50: 22.9 µM (inactive)
786-0
  GI50: > 100 µM (inactive)
SK-MEL-28
  GI50: 20.3 µM (inactive)
SK-OV-3
  GI50: 74 µM (inactive)
UO-31
  GI50: 29.1 µM (inactive)
KM12
  GI50: 17.7 µM (inactive)
MCF7
  GI50: 37.7 µM (inactive)
A498
  GI50: 99.3 µM (inactive)
SF-295
  GI50: 33 µM (inactive)
BT-549
  GI50: 33.3 µM (inactive)
K562
  GI50: 32.6 µM (inactive)
MDA-N
  GI50: 29 µM (inactive)
NCI-H23
  GI50: 50.5 µM (inactive)
PC-3
  GI50: 34.8 µM (inactive)
CAKI-1
  GI50: > 100 µM (inactive)
MOLT-4
  GI50: 13.5 µM (inactive)
NCI/ADR-RES
  GI50: 18.1 µM (inactive)
HL-60
  GI50: 14 µM (inactive)
A549
  GI50: 49.9 µM (inactive)
RPMI-8226
  GI50: 11.6 µM (inactive)
COLO 205
  GI50: 39.9 µM (inactive)
OVCAR-8
  GI50: 19.6 µM (inactive)
SK-MEL-5
  GI50: 2.25 µM (inactive)
HOP-62
  GI50: 40.2 µM (inactive)
HCT-15
  GI50: 37.7 µM
SN12C
  GI50: > 100 µM (inactive)
EKVX
  GI50: 25.6 µM (inactive)
MDA-MB-231
  GI50: > 100 µM (inactive)
DU-145
  GI50: 80.2 µM (inactive)
U-251
  GI50: > 100 µM (inactive)
SF-539
  GI50: 51.8 µM (inactive)
OVCAR-5
  GI50: > 100 µM (inactive)
